Measured values published in paper doi:10.1101/2021.11.05.467508v1, “Biochemical analysis of deacetylase activity of rice sirtuin OsSRT1, a class IV member in plants” (biorxiv, 2021).
Like-named read-outs stand apart in the source and are kept apart here.

How the values were obtained:
OsSRT1 (FL) [1] = target: T1, OsSRT1 (FL) (Oryza sativa, UniProt B8ARK7); experiment: dot blot deacetylation assay, H3K9Ac; assay type: biochemical
T1 construct: gene SRT1; full length 1-483, cloned from rice leaf cDNA into pET30a, His-tagged, monomer by SEC
T1 sequence (B8ARK7 1-483): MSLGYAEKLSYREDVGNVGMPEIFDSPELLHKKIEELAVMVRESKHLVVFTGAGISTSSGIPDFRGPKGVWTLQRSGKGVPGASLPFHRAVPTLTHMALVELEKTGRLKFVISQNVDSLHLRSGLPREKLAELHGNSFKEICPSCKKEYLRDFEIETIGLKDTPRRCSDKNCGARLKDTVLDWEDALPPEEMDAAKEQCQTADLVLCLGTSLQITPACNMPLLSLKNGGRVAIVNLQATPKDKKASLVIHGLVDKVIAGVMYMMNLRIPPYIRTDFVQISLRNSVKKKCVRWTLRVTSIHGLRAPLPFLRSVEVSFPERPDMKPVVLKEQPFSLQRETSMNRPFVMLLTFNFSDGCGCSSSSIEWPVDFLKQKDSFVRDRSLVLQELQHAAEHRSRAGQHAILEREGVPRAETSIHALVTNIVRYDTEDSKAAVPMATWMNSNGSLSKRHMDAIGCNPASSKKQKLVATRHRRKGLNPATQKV

OsSRT1 (FL) [2] = target: T1, OsSRT1 (FL); experiment: dot blot deacetylation assay, H3K9Ac; assay type: biochemical; remark: listed apart in the source

Row | SMILES | IC50 (OsSRT1 (FL) [1]) [µM] | other results
1 | Nc1ncnc2c1ncn2[C@@H]1O[C@H](COP(=O)(O)OP(=O)(O)OC[C@H]2OC(O)[C@H](O)[C@@H]2O)[C@@H](O)[C@H]1O (stereo partly shown) [ADP-ribose] | – | IC50 (OsSRT1 (FL) [1]; H3K9Ac deacetylation, product inhibition): 25 ± 2 µM
2 | NC(=O)c1cccnc1 [NAM] | 147 ± 21 | –
3 | Oc1ccc(/C=C/c2cc(O)cc(O)c2)cc1 [resveratrol] | – | EC50 (OsSRT1 (FL) [2]): 236 ± 12 µM
4 | CCCC(=O)O [sodium butyrate] | 98 ± 15 | –
